Source: patent US9963467B2, “Boronic acid derivatives and therapeutic uses thereof” (Rempex Pharmaceuticals, Inc., priority 2014, dated 2018)
Where two headings read alike, the source gives them in different places.

Assays:
ec302 (TEM-10) [1] = assay: Aztreonam potentiation (MPC@4), ec302; format: cell-based; conditions: BLI with aztreonam at 4 μg/mL
ECL1002 [2] = assay: Aztreonam potentiation (MPC@4), ECL1002; format: cell-based; conditions: BLI with aztreonam at 4 μg/mL
KP1005 (CTX-M-14) = assay: Tigemonam potentiation (MPC@4), KP1005; format: cell-based; conditions: BLI with tigemonam at 4 μg/mL
KP1009 (CTX-M-15) = assay: Tigemonam potentiation (MPC@4), KP1009; format: cell-based; conditions: BLI with tigemonam at 4 μg/mL
ec308 (SHV-5) = assay: Tigemonam potentiation (MPC@4), ec308; format: cell-based
KP1010 (SHV-12) = assay: Tigemonam potentiation (MPC@4), KP1010; format: cell-based
ec302 (TEM-10) [3] = assay: Tigemonam potentiation (MPC@4), ec302; format: cell-based
ECL1002 [4] = assay: Tigemonam potentiation (MPC@4), ECL1002; format: cell-based; conditions: BLI with tigemonam at 4 μg/mL
EC1010 (CMY-6) [5] = assay: Tigemonam potentiation (MPC@4), EC1010; format: cell-based; conditions: BLI with tigemonam at 4 μg/mL
CTX-M-14 = CTX-M-14 (Escherichia coli, UniProt Q9L5C7); assay: Ki, nitrocefin cleavage by purified enzyme, CTX-M-14; format: biochemical; conditions: nitrocefin reporter substrate; read-out: Ki (CTX-M-14, NCF)
Chain of CTX-M-14 (Q9L5C7 29-291): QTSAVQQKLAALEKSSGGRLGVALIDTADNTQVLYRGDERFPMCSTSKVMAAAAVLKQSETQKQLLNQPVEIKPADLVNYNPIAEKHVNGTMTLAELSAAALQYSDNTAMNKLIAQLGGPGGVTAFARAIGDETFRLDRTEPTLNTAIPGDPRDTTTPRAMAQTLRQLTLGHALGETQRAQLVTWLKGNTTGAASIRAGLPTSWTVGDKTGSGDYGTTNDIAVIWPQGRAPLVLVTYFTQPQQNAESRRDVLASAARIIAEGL
Outline: (§1)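 Purified enzyme was preincubated with a range of inhibitor concentrations in reaction buffer for 10 min at room temperature. Nitrocefin was then added and its cleavage followed at 490 nm every 10 sec for 10 min.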

SHV-12 = SHV-12 (Klebsiella pneumoniae, UniProt P0AD64, E235K/G234S/L31Q); assay: Ki, nitrocefin cleavage by purified enzyme, SHV-12; format: biochemical; conditions: nitrocefin reporter substrate; read-out: Ki (SHV-12, NCF)
Chain of SHV-12 (P0AD64 22-286 L31Q/G234S/E235K): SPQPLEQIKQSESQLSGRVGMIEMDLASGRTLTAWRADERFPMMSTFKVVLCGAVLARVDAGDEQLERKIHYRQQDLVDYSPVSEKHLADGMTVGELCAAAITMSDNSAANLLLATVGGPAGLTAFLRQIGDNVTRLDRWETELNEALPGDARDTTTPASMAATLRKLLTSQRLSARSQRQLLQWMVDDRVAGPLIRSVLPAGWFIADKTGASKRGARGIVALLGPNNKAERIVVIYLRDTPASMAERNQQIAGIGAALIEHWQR
Outline: as §1

KPC-2 = KPC-2 (Klebsiella pneumoniae, UniProt Q9F663); assay: Ki, nitrocefin cleavage by purified enzyme, KPC-2; format: biochemical; conditions: nitrocefin reporter substrate; read-out: Ki (KPC-2, NCF)
Chain of KPC-2 (Q9F663 25-293, looked up, species assumed): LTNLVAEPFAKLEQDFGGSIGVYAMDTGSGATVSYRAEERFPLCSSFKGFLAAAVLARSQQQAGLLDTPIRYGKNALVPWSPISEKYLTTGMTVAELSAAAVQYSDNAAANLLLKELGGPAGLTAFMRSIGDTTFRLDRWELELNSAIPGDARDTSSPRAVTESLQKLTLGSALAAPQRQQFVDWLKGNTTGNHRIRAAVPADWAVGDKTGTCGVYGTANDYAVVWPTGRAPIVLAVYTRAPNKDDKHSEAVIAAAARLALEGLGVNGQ
Outline: as §1

P99 = P99 (Enterobacter cloacae, UniProt P05364); assay: Ki, nitrocefin cleavage by purified enzyme, P99; format: biochemical; conditions: nitrocefin reporter substrate; read-out: Ki (P99, NCF)
Chain of P99 (P05364 21-381): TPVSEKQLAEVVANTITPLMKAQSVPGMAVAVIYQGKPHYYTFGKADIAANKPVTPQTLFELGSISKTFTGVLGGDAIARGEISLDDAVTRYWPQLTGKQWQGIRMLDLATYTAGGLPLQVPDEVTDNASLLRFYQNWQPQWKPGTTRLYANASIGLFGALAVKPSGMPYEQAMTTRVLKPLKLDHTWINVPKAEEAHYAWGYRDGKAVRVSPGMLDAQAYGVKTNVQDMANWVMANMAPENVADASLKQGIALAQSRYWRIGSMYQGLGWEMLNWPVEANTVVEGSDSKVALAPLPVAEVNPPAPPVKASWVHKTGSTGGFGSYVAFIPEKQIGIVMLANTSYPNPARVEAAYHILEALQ
Outline: as §1

OXA-48 = OXA-48 (Klebsiella pneumoniae, UniProt Q6XEC0); assay: Ki, nitrocefin cleavage by purified enzyme, OXA-48; format: biochemical; conditions: nitrocefin reporter substrate; read-out: Ki (OXA-48, NCF)
Chain of OXA-48 (Q6XEC0 23-265, looked up, species assumed): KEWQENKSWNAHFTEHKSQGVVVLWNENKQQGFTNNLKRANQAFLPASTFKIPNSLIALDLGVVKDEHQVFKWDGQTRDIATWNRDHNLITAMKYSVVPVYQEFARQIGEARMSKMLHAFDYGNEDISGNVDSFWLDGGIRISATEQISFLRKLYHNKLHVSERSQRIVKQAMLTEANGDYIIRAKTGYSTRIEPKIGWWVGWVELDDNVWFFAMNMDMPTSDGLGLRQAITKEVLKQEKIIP
Outline: as §1

[6] = Intravenous pharmacokinetics; format: in vivo; conditions: rat, plasma; rats, 20 mg/kg, intravenous infusion over 0.5 hours; read-out: Free Cl (converted)
Protocol: Rats (n=3 per compound) were administered by a single infusion. Intravenous doses were infused over 0.5 hours via an indwelling femoral vein cannula. […] (˜0.3 mL) samples were collected from each rat at designated time points up to 24 hours. Blood samples were centrifuged within 5 min of collection at 12000 g for 5 min to obtain plasma. The plasma samples were stored at −80° C. until analyzed. Data were analyzed using WinNonlin. The doses of all compounds tested were 20 mg/kg.

[7] = Monomer content of pH adjusted aqueous solutions (LC-UV); format: physicochemical; conditions: pH adjusted to 7.6 to 8, LC-UV; for % Monomer in 1 mg/mL salt solution: 1 mg/mL aqueous salt solution; for % Monomer in 10 mg/mL salt solution: 10 mg/mL aqueous salt solution; for % Monomer in 100 mg/mL salt solution: 100 mg/mL aqueous salt solution
Outline: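 Aqueous solutions at 1.00, 10.0 or 100 mg/mL (active fraction) brought to pH 7.6–8 with acid or base, compound fully dissolved. Injected within half an hour of preparation onto C18 reversed-phase LC (0.1% TFA water / 0.085% TFA methanol gradient); UV detection at 220, 254 and 300 nm.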

KP1004 (KPC-2) [8] = assay: Biapenem potentiation (MPC@1), KP1004; conditions: BLI with biapenem at 1 μg/mL
KP1086 (OXA-48) = assay: Biapenem potentiation (MPC@1), KP1086; conditions: BLI with biapenem at 1 μg/mL
EC1010 (CMY-6) [9] = assay: organism not typed; format: cell-based
Pa AmpC = Pa AmpC (Pseudomonas aeruginosa, UniProt P24735); assay: Ki, nitrocefin cleavage by purified enzyme, Pa AmpC; format: biochemical; conditions: nitrocefin reporter substrate; read-out: Ki (Pa AmpC, NCF)
Chain of Pa AmpC (P24735 27-397): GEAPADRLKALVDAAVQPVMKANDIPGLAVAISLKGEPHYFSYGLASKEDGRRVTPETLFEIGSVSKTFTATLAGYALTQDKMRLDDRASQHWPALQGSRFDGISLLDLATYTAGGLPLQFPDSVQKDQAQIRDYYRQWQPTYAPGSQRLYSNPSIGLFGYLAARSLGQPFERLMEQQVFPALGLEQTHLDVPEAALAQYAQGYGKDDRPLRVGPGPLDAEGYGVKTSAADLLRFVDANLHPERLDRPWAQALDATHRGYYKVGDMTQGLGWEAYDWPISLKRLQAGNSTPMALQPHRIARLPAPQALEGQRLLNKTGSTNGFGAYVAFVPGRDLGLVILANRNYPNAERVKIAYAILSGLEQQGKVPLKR
Outline: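 Kinetic read at 490 nm (every 10 sec, 10 min) of nitrocefin cleavage; purified enzyme preincubated 10 min at room temperature with inhibitor series; Ki determined.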

KP1004 (KPC-2) [10] = assay: Aztreonam potentiation (MPC@4), KP1004; format: cell-based; conditions: BLI with aztreonam at 4 μg/mL

CSCC(=O)N[C@H]1Cc2ccc(F)c(C(=O)O)c2OB1O [Compound 1, (R)-7-fluoro-2-hydroxy-3-(2-(methylthio)acetamido)-3,4-dihydro-2H-benzo[e][1,2]oxaborinine-8-carboxylic acid]
AZT MPC4 TEM-10 ec302 (ec302 (TEM-10) [1]): Y (MIC of 1 μg/mL to 10 μg/mL)
AZT MPC4 ECL1002 (ECL1002 [2]): Y (MIC of 1 μg/mL to 10 μg/mL)
TIG MPC4 CTX-M-14 KP1005 (KP1005 (CTX-M-14)): X (MIC of less than 1 μg/mL)
TIG MPC4 CTX-M-15 KP1009 (KP1009 (CTX-M-15)): X (MIC of less than 1 μg/mL)
TIG MPC4 SHV-5 ec308 (ec308 (SHV-5); BLI with tigemonam at 4 μg/mL): X (MIC of less than 1 μg/mL)
TIG MPC4 SHV-12 KP1010 (KP1010 (SHV-12); BLI with tigemonam at 4 μg/mL): X (MIC of less than 1 μg/mL)
TIG MPC4 TEM-10 ec302 (ec302 (TEM-10) [3]; BLI with tigemonam at 4 μg/mL): Y (MIC of 1 μg/mL to 10 μg/mL)
TIG MPC4 ECL1002 (ECL1002 [4]): X (MIC of less than 1 μg/mL)
TIG MPC4 CMY-6 EC1010 (EC1010 (CMY-6) [5]): X (MIC of less than 1 μg/mL)
Ki (CTX-M-14): < 1 nM
Ki (SHV-12): < 1 nM
Ki (KPC-2): > 10 nM
Ki (P99): > 10 nM
Ki (OXA-48): > 10 nM
clearance [6]: 14.2 mL/min/kg
% Monomer in 1 mg/mL salt solution [7]: 98.0%
% Monomer in 10 mg/mL salt solution [7]: 97.5%
% Monomer in 100 mg/mL salt solution [7]: 96.4%
BPM MPC1 KP1004 KPC-2 (KP1004 (KPC-2) [8]): X (MIC of less than 1 μg/mL)
BPM MPC1 OXA-48 KP1086 (KP1086 (OXA-48)): Y (MIC of 1 μg/mL to 10 μg/mL)

O=C(CSC1CNC1)N[C@H]1Cc2ccc(F)c(C(=O)O)c2OB1O [Compound 2, (R)-3-(2-(azetidin-3-ylthio)acetamido)-7-fluoro-2-hydroxy-3,4-dihydro-2H-benzo[e][1,2]oxaborinine-8-carboxylic acid]
AZT MPC4 TEM-10 ec302 (ec302 (TEM-10) [1]): Y (MIC of 1 μg/mL to 10 μg/mL)
AZT MPC4 ECL1002 (ECL1002 [2]): Y (MIC of 1 μg/mL to 10 μg/mL)
AZT MPC4 CMY-6 EC1010 (EC1010 (CMY-6) [9]): Y (key: X: MIC of less than 1 ng/mL; Y: MIC of 1 μg/mL to 10 μg/mL; Z: MIC of greater than 10 μg/mL)
TIG MPC4 CTX-M-14 KP1005 (KP1005 (CTX-M-14)): X (MIC of less than 1 μg/mL)
TIG MPC4 CTX-M-15 KP1009 (KP1009 (CTX-M-15)): X (MIC of less than 1 μg/mL)
TIG MPC4 SHV-5 ec308 (ec308 (SHV-5)): X (key: X: MIC of less than 1 μg/mL; Y: MIC of 1 μg/mL to 10 μg/mL; Z: MIC of greater than 10 μg/mL)
TIG MPC4 SHV-12 KP1010 (KP1010 (SHV-12)): X (key: X: MIC of less than 1 μg/mL; Y: MIC of 1 μg/mL to 10 μg/mL; Z: MIC of greater than 10 μg/mL)
TIG MPC4 TEM-10 ec302 (ec302 (TEM-10) [3]): Y (key: X: MIC of less than 1 ng/mL; Y: MIC of 1 μg/mL to 10 μg/mL; Z: MIC of greater than 10 μg/mL)
TIG MPC4 ECL1002 (ECL1002 [4]): X (MIC of less than 1 μg/mL)
TIG MPC4 CMY-6 EC1010 (EC1010 (CMY-6) [5]): X (MIC of less than 1 μg/mL)
Ki (CTX-M-14): < 1 nM
Ki (SHV-12): < 1 nM
Ki (KPC-2): > 10 nM
Ki (P99): > 10 nM
Ki (Pa AmpC): > 10 nM
Ki (OXA-48): > 10 nM
clearance [6]: 10.2 mL/min/kg
BPM MPC1 KP1004 KPC-2 (KP1004 (KPC-2) [8]): X (MIC of less than 1 μg/mL)
BPM MPC1 OXA-48 KP1086 (KP1086 (OXA-48)): Y (MIC of 1 μg/mL to 10 μg/mL)

COc1ccc2c(c1C(=O)O)OB(O)[C@@H](NC(=O)Cc1cccs1)C2 [Compound 29, (R)-2-hydroxy-7-methoxy-3-(2-(thiophen-2-yl)acetamido)-3,4-dihydro-2H-benzo[e][1,2]oxaborinine-8-carboxylic acid]
AZT MPC4 TEM-10 ec302 (ec302 (TEM-10) [1]): X (MIC of less than 1 ng/mL)
AZT MPC4 KPC-2 KP1004 (KP1004 (KPC-2) [10]): Y (MIC of 1 μg/mL to 10 μg/mL)
TIG MPC4 CTX-M-14 KP1005 (KP1005 (CTX-M-14)): X (MIC of less than 1 μg/mL)
TIG MPC4 CTX-M-15 KP1009 (KP1009 (CTX-M-15)): X (MIC of less than 1 μg/mL)
TIG MPC4 SHV-5 ec308 (ec308 (SHV-5)): X (key: X: MIC of less than 1 μg/mL; Y: MIC of 1 μg/mL to 10 μg/mL; Z: MIC of greater than 10 μg/mL)
TIG MPC4 SHV-12 KP1010 (KP1010 (SHV-12)): X (key: X: MIC of less than 1 μg/mL; Y: MIC of 1 μg/mL to 10 μg/mL; Z: MIC of greater than 10 μg/mL)
TIG MPC4 TEM-10 ec302 (ec302 (TEM-10) [3]): Y (key: X: MIC of less than 1 ng/mL; Y: MIC of 1 μg/mL to 10 μg/mL; Z: MIC of greater than 10 μg/mL)
TIG MPC4 ECL1002 (ECL1002 [4]): X (MIC of less than 1 μg/mL)
TIG MPC4 CMY-6 EC1010 (EC1010 (CMY-6) [5]): X (MIC of less than 1 μg/mL)
Ki (CTX-M-14): < 1 nM
Ki (SHV-12): < 1 nM
Ki (KPC-2): 1 to 10 nM
Ki (P99): 1 to 10 nM
Ki (Pa AmpC): 1 to 10 nM
Ki (OXA-48): < 1 nM
clearance [6]: 11.2 mL/min/kg
% Monomer in 1 mg/mL salt solution [7]: 99.4%
% Monomer in 10 mg/mL salt solution [7]: 98.6%
% Monomer in 100 mg/mL salt solution [7]: 67.0%
BPM MPC1 KP1004 KPC-2 (KP1004 (KPC-2) [8]): X (MIC of less than 1 μg/mL)
BPM MPC1 OXA-48 KP1086 (KP1086 (OXA-48)): Y (MIC of 1 μg/mL to 10 μg/mL)

O=C(Cc1cccs1)N[C@H]1Cc2ccc(F)c(C(=O)O)c2OB1O [Compound 30, (R)-7-fluoro-2-hydroxy-3-(2-(thiophen-2-yl)acetamido)-3,4-dihydro-2H-benzo[e][1,2]oxaborinine-8-carboxylic acid]
AZT MPC4 TEM-10 ec302 (ec302 (TEM-10) [1]): Y (MIC of 1 μg/mL to 10 μg/mL)
AZT MPC4 ECL1002 (ECL1002 [2]): Y (MIC of 1 μg/mL to 10 μg/mL)
AZT MPC4 CMY-6 EC1010 (EC1010 (CMY-6) [9]): Y (key: X: MIC of less than 1 ng/mL; Y: MIC of 1 μg/mL to 10 μg/mL; Z: MIC of greater than 10 μg/mL)
TIG MPC4 CTX-M-14 KP1005 (KP1005 (CTX-M-14)): Y (MIC of 1 μg/mL to 10 μg/mL)
TIG MPC4 CTX-M-15 KP1009 (KP1009 (CTX-M-15)): X (MIC of less than 1 μg/mL)
TIG MPC4 SHV-5 ec308 (ec308 (SHV-5)): X (key: X: MIC of less than 1 μg/mL; Y: MIC of 1 μg/mL to 10 μg/mL; Z: MIC of greater than 10 μg/mL)
TIG MPC4 SHV-12 KP1010 (KP1010 (SHV-12)): X (key: X: MIC of less than 1 μg/mL; Y: MIC of 1 μg/mL to 10 μg/mL; Z: MIC of greater than 10 μg/mL)
TIG MPC4 TEM-10 ec302 (ec302 (TEM-10) [3]): Y (key: X: MIC of less than 1 ng/mL; Y: MIC of 1 μg/mL to 10 μg/mL; Z: MIC of greater than 10 μg/mL)
TIG MPC4 ECL1002 (ECL1002 [4]): X (MIC of less than 1 μg/mL)
TIG MPC4 CMY-6 EC1010 (EC1010 (CMY-6) [5]): X (MIC of less than 1 μg/mL)
Ki (CTX-M-14): < 1 nM
Ki (SHV-12): < 1 nM
Ki (KPC-2): 1 to 10 nM
Ki (P99): 1 to 10 nM
Ki (Pa AmpC): 1 to 10 nM
Ki (OXA-48): < 1 nM
clearance [6]: 23 mL/min/kg
% Monomer in 1 mg/mL salt solution [7]: 94.6%
% Monomer in 10 mg/mL salt solution [7]: 93.5%
% Monomer in 100 mg/mL salt solution [7]: 87.6%
BPM MPC1 KP1004 KPC-2 (KP1004 (KPC-2) [8]): X (MIC of less than 1 μg/mL)
BPM MPC1 OXA-48 KP1086 (KP1086 (OXA-48)): Y (MIC of 1 μg/mL to 10 μg/mL)
